According to patent publication US20240246905A1 (University of Leicester, priority 2021, published 2024):

Key:
[1] = tested on: various Staphylococcus aureus strains; experiment: Disc diffusion, Staphylococcus aureus strain study; assay type: cell-based; conditions: Staphylococcus aureus, 500 μg/mL
From the text: At this point in the study it was decided to perform a disc diffusion assay study on 50 S. aureus strains. […] Moreover, by employing a range of mutant strains of S. aureus with specific gene-deletions, it was believed that if particular strains were resistant to the lead compounds, it could provide insights on the likely protein target of the lead antibiotics. However, all six of the compounds utilized in this study were able to inhibit growth of all 50 strains of S. aureus assayed at the chosen concentration of 500 μg/mL concentration (Table 5).
E. coli DH5α, P. aeruginosa PA01 and the 53 S. aureus strains were recovered from frozen (−80° C.) glycerol (15% v/v) stocks on Lysogeny agar (LA)—Gram negative and trypticase soy agar (TSA)—plates at 37° C. for 24 hours. Single colonies were placed in either 3 mL Lysogeny broth (LB)—Gram negative or trypticase soy broth (TSB)—Gram positive and incubated at 37° C., 250 rpm for 18 hours.
The antibiotic activity was determined using a Kirby-Bauer method according to Clinical Standard Laboratory Institute (CSLI) Guidelines (2017). Briefly, 180 μL of a 1 in 200 dilution (in LB or TSB) of overnight cultures of selected Gram negative and Gram positive bacteria were applied to an agar plate containing the solid growth medium, Mueller-Hinton agar (MHA). Sterile discs, inoculated with 50 μL of antibiotic, were first added to the agar plate before the plates were incubated for 24 hours at 37° C. Following incubation, the zone of inhibition (if it existed) was recorded.

[2] = tested on: red blood cells; experiment: Hemolysis assay (CO-ADD); assay type: cell-based; conditions: 32 μg/mL highest concentration tested
From the text: A problem often encountered by emerging drugs is hemolysis, also known as drug-induced immune hemolytic anemia.

[3] = tested on: MSSA 476; experiment: MIC, broth micro-dilution; assay type: cell-based, Staphylococcus aureus; conditions: Staphylococcus aureus, MSSA, read-out: MIC
Procedure, shortened: (§1)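 S. aureus cultures grown 18 h in TSB were used to inoculate twofold antibiotic series in TSB at 5×10^5 CFU/mL, per CLSI guidelines. Growth curves read by optical density at 12-min intervals for 18 h at 37 °C were fitted sigmoidally to calculate MIC.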

[4] = tested on: MRSA 252; experiment: MIC, broth micro-dilution; assay type: cell-based, Staphylococcus aureus; conditions: Staphylococcus aureus, read-out: MIC
Procedure, shortened: as §1

[5] = tested on: MSSA 476; experiment: Disc diffusion (Kirby-Bauer), zone of inhibition; assay type: cell-based, Staphylococcus aureus; conditions: Staphylococcus aureus, 500 μg/mL, '/' = no zone, read-out: Zone of inhibition
Procedure, shortened: (§2)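 Zones of inhibition recorded after 24 h at 37 °C on Mueller-Hinton agar. Agar was inoculated with 1 in 200 diluted 18 h broth cultures, and discs carried 50 μL of antibiotic. Method follows CLSI 2017 disc diffusion.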

[6] = tested on: MRSA 252; experiment: Disc diffusion (Kirby-Bauer), zone of inhibition; assay type: cell-based, Staphylococcus aureus; conditions: Staphylococcus aureus, 500 μg/mL, '/' = no zone, read-out: Zone of inhibition
Procedure, shortened: as §2

[7] = tested on: HEK293 cells; experiment: Cytotoxicity assay, resazurin (CO-ADD); conditions: for toxicity towards the HEK293 cell line (in words): set concentration of 32 μg/mL
Method: The cytotoxicity studies were performed by CO-ADD (The Community for Open Antimicrobial Drug Discovery), funded by the Wellcome trust (UK) and the University of Queensland, Australia.^(28) In this study, the compounds were screened against a human embryonic kidney cell line, HEK293, at a set concentration of 32 μg/mL.
DMEM supplemented with 10% FBS was used as growth media and the cells were incubated together with the compounds for 20 hours at 37° C. in 5% CO2.
Cytotoxicity (or cell viability) was measured by fluorescence, excitation: 560/10 nm, emission: 590/10 nm (F560/590), after addition of 5 μL of 25 μg/mL Resazurin (2.3 μg/mL final concentration) and after incubation for further 3 h at 37° C. in 5% CO2. The fluorescence intensity was measured using a Tecan M1000 Pro monochromator plate reader, using automatic gain calculation CC50 (concentration at 50% cytotoxicity) were calculated by curve fitting the inhibition values vs. log(concentration) using sigmoidal dose-response function, with variable fitting values for bottom, top and slope. The curve fitting was implemented using Pipeline Pilot's dose-response component.

[8] = tested on: Escherichia coli DH5α; experiment: Disc diffusion (Kirby-Bauer), zone of inhibition; assay type: cell-based; conditions: Escherichia coli DH5α; 500 μg/mL; '/' = no zone; read-out: Zone of inhibition
Procedure, shortened: as §2

[9] = tested on: Staphylococcus aureus 15981; experiment: Disc diffusion (Kirby-Bauer), zone of inhibition; assay type: cell-based; conditions: Staphylococcus aureus 15981; 500 μg/mL; '/' = no zone; read-out: Zone of inhibition
Procedure, shortened: as §2

[C-]#[N+]C=Cc1ccc(O)c(Br)c1 [Compound 14]
17 mm: zone of inhibition at 500 µg/mL ([1]; strain USFL 008)
22 mm: zone of inhibition at 500 µg/mL ([1]; strain ASARM 61) | zone of inhibition at 500 µg/mL ([1]; strain ASARM 71) | zone of inhibition at 500 µg/mL ([1]; strain ASARM 76) | zone of inhibition at 500 µg/mL ([1]; strain ASARM 77) | zone of inhibition at 500 µg/mL ([1]; strain EOE 23) | zone of inhibition at 500 µg/mL ([1]; strain EOE 30) | zone of inhibition at 500 µg/mL ([1]; strain S197_1_8) | zone of inhibition at 500 µg/mL ([1]; strain S197_1_9) | zone of inhibition at 500 µg/mL ([1]; strain S197_1_10) | zone of inhibition at 500 µg/mL ([1]; strain S295_1_1) | zone of inhibition at 500 µg/mL ([1]; strain Sa_TPS 3104)
>32 µg/mL: Hemolytic activity (HC10) [2]
25 mm: zone of inhibition at 500 µg/mL ([1]; strain ASARM 80) | zone of inhibition at 500 µg/mL ([1]; strain EOE 52) | zone of inhibition at 500 µg/mL ([1]; strain S197_1_1)
44 µg/mL: MIC [4]
no toxicity: toxicity towards the HEK293 cell line (in words) [7]
19 mm: zone of inhibition at 500 µg/mL ([1]; strain EOE 54) | zone of inhibition at 500 µg/mL ([1]; strain USFL 035)
14 mm: zone of inhibition at 500 µg/mL ([1]; strain S295_1_2)
242 µg/mL: MIC [3]
28 mm: zone of inhibition at 500 µg/mL [9]
20 mm: zone of inhibition at 500 µg/mL ([1]; strain ASARM 70) | zone of inhibition at 500 µg/mL ([1]; strain ASARM 72) | zone of inhibition at 500 µg/mL ([1]; strain ASARM 73) | zone of inhibition at 500 µg/mL ([1]; strain ASARM 75) | zone of inhibition at 500 µg/mL ([1]; strain EOE 3) | zone of inhibition at 500 µg/mL ([1]; strain EOE 41) | zone of inhibition at 500 µg/mL ([1]; strain EOE 45) | zone of inhibition at 500 µg/mL ([1]; strain EOE 57) | zone of inhibition at 500 µg/mL ([1]; strain S139_7_7) | zone of inhibition at 500 µg/mL ([1]; strain S295_1_3) | zone of inhibition at 500 µg/mL ([1]; strain Sa_TPS 3106) | zone of inhibition at 500 µg/mL ([1]; strain USFL 012)
18 mm: zone of inhibition at 500 µg/mL ([1]; strain EOE 35) | zone of inhibition at 500 µg/mL ([1]; strain EOE 42) | zone of inhibition at 500 µg/mL ([1]; strain Sa_TPS 3072) | zone of inhibition at 500 µg/mL ([1]; strain Sa_TPS 3097) | zone of inhibition at 500 µg/mL ([1]; strain Sa_TPS 3118) | zone of inhibition at 500 µg/mL ([1]; strain Sa_TPS 3133) | zone of inhibition at 500 µg/mL ([1]; strain Sa_TPS 3134) | zone of inhibition at 500 µg/mL ([1]; strain USFL 016) | zone of inhibition at 500 µg/mL ([1]; strain USFL 018) | zone of inhibition at 500 µg/mL ([1]; strain USFL 021) | zone of inhibition at 500 µg/mL ([1]; strain USFL 028) | zone of inhibition at 500 µg/mL ([1]; strain USFL 054)
24 mm: zone of inhibition at 500 µg/mL ([1]; strain ASARM 79) | zone of inhibition at 500 µg/mL ([1]; strain S364_5_11) | zone of inhibition at 500 µg/mL ([1]; strain S364_5_12) | zone of inhibition at 500 µg/mL ([1]; strain Sa_TPS 3092) | zone of inhibition at 500 µg/mL [5] | zone of inhibition at 500 µg/mL [6]
>32000 ng/mL: Concentration toxic to HEK 293 cells [7]
16 mm: zone of inhibition at 500 µg/mL ([1]; strain Sa_TPS 3026) | zone of inhibition at 500 µg/mL ([1]; strain USFL 009) | zone of inhibition at 500 µg/mL ([1]; strain USFL 020)
26 mm: zone of inhibition at 500 µg/mL ([1]; strain Sa_TPS 3103) | zone of inhibition at 500 µg/mL [8]

[C-]#[N+]/C=C/c1ccc(O)cc1/C=C/c1ccccc1 [Compound 36, 4-((E Z)-2-Isocyanovinyl)-3-((E)-styryl)phenol]
no toxicity: toxicity towards the HEK293 cell line (in words) [7]
>32 µg/mL: Hemolytic activity (HC10) [2]
12 µg/mL: MIC [3]
32 mm: zone of inhibition at 500 µg/mL ([1]; strain ASARM 75) | zone of inhibition at 500 µg/mL ([1]; strain EOE 23) | zone of inhibition at 500 µg/mL ([1]; strain EOE 35) | zone of inhibition at 500 µg/mL ([1]; strain S295_1_3) | zone of inhibition at 500 µg/mL ([1]; strain Sa_TPS 3103) | zone of inhibition at 500 µg/mL ([1]; strain Sa_TPS 3104) | zone of inhibition at 500 µg/mL ([1]; strain USFL 016)
34 mm: zone of inhibition at 500 µg/mL ([1]; strain ASARM 76) | zone of inhibition at 500 µg/mL ([1]; strain ASARM 77) | zone of inhibition at 500 µg/mL ([1]; strain EOE 30) | zone of inhibition at 500 µg/mL ([1]; strain Sa_TPS 3097)
29 mm: zone of inhibition at 500 µg/mL ([1]; strain ASARM 61) | zone of inhibition at 500 µg/mL ([1]; strain ASARM 73) | zone of inhibition at 500 µg/mL ([1]; strain ASARM 79) | zone of inhibition at 500 µg/mL ([1]; strain EOE 54) | zone of inhibition at 500 µg/mL ([1]; strain S197_1_1) | zone of inhibition at 500 µg/mL ([1]; strain Sa_TPS 3026) | zone of inhibition at 500 µg/mL ([1]; strain Sa_TPS 3092) | zone of inhibition at 500 µg/mL ([1]; strain USFL 021)
30 mm: zone of inhibition at 500 µg/mL ([1]; strain ASARM 80) | zone of inhibition at 500 µg/mL ([1]; strain EOE 3) | zone of inhibition at 500 µg/mL ([1]; strain S295_1_1) | zone of inhibition at 500 µg/mL ([1]; strain S295_1_2) | zone of inhibition at 500 µg/mL ([1]; strain S364_5_11) | zone of inhibition at 500 µg/mL ([1]; strain USFL 018) | zone of inhibition at 500 µg/mL ([1]; strain USFL 020) | zone of inhibition at 500 µg/mL [5] | zone of inhibition at 500 µg/mL [9]
>32000 ng/mL: Concentration toxic to HEK 293 cells [7]
22 mm: zone of inhibition at 500 µg/mL ([1]; strain not given)
15 µg/mL: MIC [4]
28 mm: zone of inhibition at 500 µg/mL ([1]; strain ASARM 70) | zone of inhibition at 500 µg/mL ([1]; strain EOE 41) | zone of inhibition at 500 µg/mL ([1]; strain EOE 45) | zone of inhibition at 500 µg/mL ([1]; strain EOE 52) | zone of inhibition at 500 µg/mL ([1]; strain EOE 57) | zone of inhibition at 500 µg/mL ([1]; strain S197_1_8) | zone of inhibition at 500 µg/mL ([1]; strain S197_1_9) | zone of inhibition at 500 µg/mL ([1]; strain S197_1_10) | zone of inhibition at 500 µg/mL ([1]; strain S364_5_12) | zone of inhibition at 500 µg/mL ([1]; strain Sa_TPS 3072) | zone of inhibition at 500 µg/mL ([1]; strain Sa_TPS 3106) | zone of inhibition at 500 µg/mL ([1]; strain Sa_TPS 3118) | zone of inhibition at 500 µg/mL ([1]; strain Sa_TPS 3133) | zone of inhibition at 500 µg/mL ([1]; strain USFL 009) | zone of inhibition at 500 µg/mL ([1]; strain USFL 012) | zone of inhibition at 500 µg/mL ([1]; strain USFL 028) | zone of inhibition at 500 µg/mL ([1]; strain USFL 035) | zone of inhibition at 500 µg/mL ([1]; strain USFL 054) | zone of inhibition at 500 µg/mL [6]
26 mm: zone of inhibition at 500 µg/mL ([1]; strain ASARM 71) | zone of inhibition at 500 µg/mL ([1]; strain ASARM 72) | zone of inhibition at 500 µg/mL ([1]; strain EOE 42) | zone of inhibition at 500 µg/mL ([1]; strain Sa_TPS 3134) | zone of inhibition at 500 µg/mL ([1]; strain USFL 008)
24 mm: zone of inhibition at 500 µg/mL ([1]; strain S139_7_7)
